Source: ChEMBL document CHEMBL1201862, “PubChem BioAssay data set” (2004)
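Growth conditions: 96-well plates. Treatment: test compound, 48 hours, 5 concentrations. Analysis: linear interpolation between bracketing concentrations; unreached endpoints set to highest concentration. GI50 = concentration required for 50% inhibition of growth.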 Active and inactive are the calls of the source. Rule as the data show it: active = GI50 up to about 1.1 µM and inactive = higher.

Assays:
Test in all cases: NCI anticancer screen, dose series, 48 h
786-0 = system: 786-0
A498 = system: A498
A549 = system: A549
ACHN = system: ACHN
BT-549 = system: BT-549
CAKI-1 = system: CAKI-1
CCRF-CEM = system: CCRF-CEM
COLO 205 = system: COLO 205
DU-145 = system: DU-145
EKVX = system: EKVX
HCC 2998 = system: HCC 2998
HCT-116 = system: HCT-116
HCT-15 = system: HCT-15
HOP-62 = system: HOP-62
HT-29 = system: HT-29
Hs-578T = system: Hs-578T
KM12 = system: KM12
M14 = system: M14
MCF7 = system: MCF7
MDA-MB-231 = system: MDA-MB-231
MDA-MB-435 = system: MDA-MB-435
MDA-N = system: MDA-N
MOLT-4 = system: MOLT-4
Malme-3M = system: Malme-3M
NCI-H226 = system: NCI-H226
NCI-H23 = system: NCI-H23
NCI-H460 = system: NCI-H460
NCI/ADR-RES = system: NCI/ADR-RES
OVCAR-3 = system: OVCAR-3
OVCAR-4 = system: OVCAR-4
OVCAR-5 = system: OVCAR-5
OVCAR-8 = system: OVCAR-8
PC-3 = system: PC-3
RPMI-8226 = system: RPMI-8226
SF-268 = system: SF-268
SF-295 = system: SF-295
SF-539 = system: SF-539
SK-MEL-28 = system: SK-MEL-28
SK-MEL-2 = system: SK-MEL-2
SK-OV-3 = system: SK-OV-3
SN12C = system: SN12C
SNB-19 = system: SNB-19
SNB-75 = system: SNB-75
SW-620 = system: SW-620
T47D = system: T47D
U-251 = system: U-251
UACC-257 = system: UACC-257
UACC-62 = system: UACC-62
UO-31 = system: UO-31
HL-60 = system: HL-60
HOP-92 = system: HOP-92
IGROV-1 = system: IGROV-1
K562 = system: K562
LOX IMVI = system: LOX IMVI
NCI-H522 = system: NCI-H522
RXF 393 = system: RXF 393
SK-MEL-5 = system: SK-MEL-5
SR = system: SR
TK-10 = system: TK-10

## O=[N+]([O-])C(/C(Cl)=C(/Cl)N1CCCCC1)=C1\NCCO1
786-0
  GI50: > 100 µM (inactive)
A498
  GI50: > 100 µM (inactive)
A549
  GI50: > 100 µM (inactive)
ACHN
  GI50: > 100 µM (inactive)
BT-549
  GI50: > 100 µM (inactive)
CAKI-1
  GI50: > 100 µM (inactive)
CCRF-CEM
  GI50: > 100 µM (inactive)
COLO 205
  GI50: > 100 µM (inactive)
DU-145
  GI50: > 100 µM (inactive)
EKVX
  GI50: > 100 µM (inactive)
HCC 2998
  GI50: > 100 µM (inactive)
HCT-116
  GI50: > 100 µM (inactive)
HCT-15
  GI50: > 100 µM
HOP-62
  GI50: > 100 µM (inactive)
HT-29
  GI50: > 100 µM (inactive)
Hs-578T
  GI50: > 100 µM (inactive)
KM12
  GI50: > 100 µM (inactive)
M14
  GI50: > 100 µM (inactive)
MCF7
  GI50: > 100 µM (inactive)
MDA-MB-231
  GI50: > 100 µM (inactive)
MDA-MB-435
  GI50: > 100 µM (inactive)
MDA-N
  GI50: > 100 µM (inactive)
MOLT-4
  GI50: > 100 µM (inactive)
Malme-3M
  GI50: > 100 µM (inactive)
NCI-H226
  GI50: > 100 µM (inactive)
NCI-H23
  GI50: > 100 µM (inactive)
NCI-H460
  GI50: > 100 µM (inactive)
NCI/ADR-RES
  GI50: > 100 µM (inactive)
OVCAR-3
  GI50: > 100 µM (inactive)
OVCAR-4
  GI50: > 100 µM (inactive)
OVCAR-5
  GI50: > 100 µM (inactive)
OVCAR-8
  GI50: > 100 µM (inactive)
PC-3
  GI50: > 100 µM (inactive)
RPMI-8226
  GI50: > 100 µM (inactive)
SF-268
  GI50: > 100 µM (inactive)
SF-295
  GI50: > 100 µM (inactive)
SF-539
  GI50: > 100 µM (inactive)
SK-MEL-28
  GI50: > 100 µM (inactive)
SK-MEL-2
  GI50: > 100 µM (inactive)
SK-OV-3
  GI50: > 100 µM (inactive)
SN12C
  GI50: > 100 µM (inactive)
SNB-19
  GI50: > 100 µM (inactive)
SNB-75
  GI50: > 100 µM (inactive)
SW-620
  GI50: > 100 µM (inactive)
T47D
  GI50: > 100 µM (inactive)
U-251
  GI50: > 100 µM (inactive)
UACC-257
  GI50: > 100 µM (inactive)
UACC-62
  GI50: > 100 µM (inactive)
UO-31
  GI50: > 100 µM (inactive)

## CC(=O)N1C(OCc2ccccc2)CCN1c1ccccc1 (centres undefined)
786-0
  GI50: > 10 µM (inactive)
A549
  GI50: > 10 µM (inactive)
ACHN
  GI50: > 10 µM (inactive)
BT-549
  GI50: > 10 µM (inactive)
CAKI-1
  GI50: > 10 µM (inactive)
CCRF-CEM
  GI50: > 10 µM (inactive)
COLO 205
  GI50: > 10 µM (inactive)
DU-145
  GI50: > 10 µM (inactive)
HCT-116
  GI50: > 10 µM (inactive)
HCT-15
  GI50: > 10 µM
HL-60
  GI50: > 10 µM (inactive)
HOP-62
  GI50: > 10 µM (inactive)
HOP-92
  GI50: 3.29 µM (inactive)
HT-29
  GI50: > 10 µM (inactive)
Hs-578T
  GI50: > 10 µM (inactive)
IGROV-1
  GI50: > 10 µM (inactive)
K562
  GI50: > 10 µM (inactive)
LOX IMVI
  GI50: > 10 µM (inactive)
M14
  GI50: > 10 µM (inactive)
MDA-MB-231
  GI50: > 10 µM (inactive)
MDA-MB-435
  GI50: > 10 µM (inactive)
MDA-N
  GI50: > 10 µM (inactive)
MOLT-4
  GI50: > 10 µM (inactive)
Malme-3M
  GI50: > 10 µM (inactive)
NCI-H226
  GI50: > 10 µM (inactive)
NCI-H23
  GI50: > 10 µM (inactive)
NCI-H460
  GI50: > 10 µM (inactive)
NCI-H522
  GI50: > 10 µM (inactive)
NCI/ADR-RES
  GI50: > 10 µM (inactive)
OVCAR-3
  GI50: > 10 µM (inactive)
OVCAR-4
  GI50: > 10 µM (inactive)
OVCAR-5
  GI50: > 10 µM (inactive)
OVCAR-8
  GI50: > 10 µM (inactive)
PC-3
  GI50: > 10 µM (inactive)
RPMI-8226
  GI50: > 10 µM (inactive)
RXF 393
  GI50: > 10 µM (inactive)
SF-268
  GI50: > 10 µM (inactive)
SF-295
  GI50: > 10 µM (inactive)
SF-539
  GI50: > 10 µM (inactive)
SK-MEL-28
  GI50: > 10 µM (inactive)
SK-MEL-2
  GI50: > 10 µM (inactive)
SK-MEL-5
  GI50: > 10 µM (inactive)
SK-OV-3
  GI50: > 10 µM (inactive)
SN12C
  GI50: > 10 µM (inactive)
SNB-19
  GI50: > 10 µM (inactive)
SNB-75
  GI50: > 10 µM (inactive)
SR
  GI50: > 10 µM (inactive)
SW-620
  GI50: > 10 µM (inactive)
T47D
  GI50: > 10 µM (inactive)
TK-10
  GI50: > 10 µM (inactive)
UACC-257
  GI50: > 10 µM (inactive)
UO-31
  GI50: > 10 µM (inactive)

## C/C=C1\CC(C(=O)OCC)CCCCCCCCCCC1=O (centres undefined)
786-0
  GI50: 70.1 µM (inactive)
A498
  GI50: > 100 µM (inactive)
A549
  GI50: 51.3 µM (inactive)
ACHN
  GI50: 75 µM (inactive)
BT-549
  GI50: 82.8 µM (inactive)
CAKI-1
  GI50: > 100 µM (inactive)
CCRF-CEM
  GI50: 37 µM (inactive)
COLO 205
  GI50: > 100 µM (inactive)
DU-145
  GI50: 54.3 µM (inactive)
EKVX
  GI50: 41.5 µM (inactive)
HCT-116
  GI50: 33.4 µM (inactive)
HCT-15
  GI50: 34.6 µM
HL-60
  GI50: 36.6 µM (inactive)
HOP-62
  GI50: > 100 µM (inactive)
HT-29
  GI50: 46.8 µM (inactive)
Hs-578T
  GI50: 28.9 µM (inactive)
IGROV-1
  GI50: 31.8 µM (inactive)
KM12
  GI50: 41.3 µM (inactive)
LOX IMVI
  GI50: 28.8 µM (inactive)
M14
  GI50: > 100 µM (inactive)
MCF7
  GI50: 32.8 µM (inactive)
MDA-MB-231
  GI50: 58.6 µM (inactive)
MDA-MB-435
  GI50: 17.5 µM (inactive)
MDA-N
  GI50: 29.4 µM (inactive)
MOLT-4
  GI50: 29 µM (inactive)
Malme-3M
  GI50: 32.4 µM (inactive)
NCI-H226
  GI50: 25.1 µM (inactive)
NCI-H23
  GI50: 37.6 µM (inactive)
NCI-H460
  GI50: 54.1 µM (inactive)
NCI-H522
  GI50: 25.5 µM (inactive)
NCI/ADR-RES
  GI50: 34.7 µM (inactive)
OVCAR-4
  GI50: 55.5 µM (inactive)
OVCAR-5
  GI50: > 100 µM (inactive)
OVCAR-8
  GI50: 43.3 µM (inactive)
PC-3
  GI50: 47.9 µM (inactive)
RXF 393
  GI50: 55.8 µM (inactive)
SF-268
  GI50: 53.5 µM (inactive)
SF-295
  GI50: 57.4 µM (inactive)
SF-539
  GI50: > 100 µM (inactive)
SK-MEL-28
  GI50: > 100 µM (inactive)
SK-MEL-2
  GI50: 36.1 µM (inactive)
SK-MEL-5
  GI50: 29.2 µM (inactive)
SK-OV-3
  GI50: > 100 µM (inactive)
SN12C
  GI50: 26.6 µM (inactive)
SNB-19
  GI50: 69.2 µM (inactive)
SNB-75
  GI50: 27.7 µM (inactive)
SW-620
  GI50: 38.5 µM (inactive)
T47D
  GI50: 26.7 µM (inactive)
TK-10
  GI50: > 100 µM (inactive)
U-251
  GI50: 55.2 µM (inactive)
UACC-257
  GI50: 37.8 µM (inactive)
UACC-62
  GI50: 91.2 µM (inactive)
UO-31
  GI50: 37.3 µM (inactive)
